Source: ChEMBL document CHEMBL4616622, “HSP70 induction by bleomycin metal core analogs” (Bioorg Med Chem Lett, 2020)
Active and inactive are the calls of the source. The rule behind the calls is not given here.

Experiments:
[1] = tested on: PC-12; assay: Induction of HSP70 expression in rat PC12 cells at 10 uM incubated for 4 hrs by Western blot analysis; type: functional, cell-based
[2] = tested on: PC-12; assay: Induction of HSP70 expression in rat PC12 cells at 10 to 20 uM incubated for 4 hrs by Western blot analysis; type: functional, cell-based
[3] = tested on: PC-12; assay: Cytotoxicity against rat PC12 cells assessed as reduction in cell viability at 30 uM incubated for 1 day by MTT assay relative to control; type: cell-based; settings: pc-12, 24 h
[4] = tested on: PC-12; assay: Induction of HSP70 expression in rat PC12 cells at 10 uM by Western blot analysis; type: functional, cell-based; settings: TDE = time-dependent effect
[5] = tested on: PC-12; assay: Induction of HSP70 in rat PC12 cells assessed as upregulation of HSP70 mRNA at 10 uM incubated for 4 hrs by qRT-PCR analysis; type: cell-based
[6] = tested on: PC-12; assay: Induction of HSP70 expression in rat PC12 cells at 7.5 uM incubated for 4 hrs by Western blot analysis; type: functional, cell-based
[7] = tested on: PC-12; assay: Induction of HSP70 expression in rat PC12 cells at 10 uM incubated for 24 hrs by Western blot analysis; type: functional, cell-based
[8] = tested on: PC-12; assay: Induction of HSP70 expression in rat PC12 cells at 10 uM incubated for 4 hrs in presence of human betaNGF by Western blot analysis; type: functional, cell-based
[9] = tested on: PC-12; assay: Induction of HSP70 expression in rat PC12 cells at 5 to 30 uM incubated for 4 hrs by Western blot analysis; type: functional, cell-based

Compound	Activity [1]	also measured
COC(=O)[C@H](Cc1c[nH]cn1)NCc1cc(N(C)C)cc(CN[C@@H](Cc2cn(Cc3ccccc3)cn2)C(=O)OC)n1	inactive	
COC(=O)[C@H](Cc1c[nH]cn1)NCc1cc(N(C)C)cc(CN[C@@H](Cc2cn(C(c3ccccc3)(c3ccccc3)c3ccccc3)cn2)C(=O)OC)n1	Active	Activity [2]: Active; Activity [3]: > 50%; Activity [4]: Tde; Activity [5]: Active; Activity [6]: inactive; Activity [7]: Active; Activity [8]: Active
COC(=O)[C@H](Cc1c[nH]cn1)NCc1cc(N(C)C)cc(CN[C@@H](Cc2cn(C)cn2)C(=O)OC)n1	inactive	
COC(=O)[C@H](Cc1cn(C(c2ccccc2)(c2ccccc2)c2ccccc2)cn1)NCc1cc(N(C)C)cc(CN[C@@H](Cc2cn(C(c3ccccc3)(c3ccccc3)c3ccccc3)cn2)C(=O)OC)n1	inactive	
COC(=O)[C@H](Cc1c[nH]cn1)NCc1cccc(CN[C@@H](Cc2cn(C(c3ccccc3)(c3ccccc3)c3ccccc3)cn2)C(=O)OC)n1	Active	Activity [8]: Active
COC(=O)[C@H](Cc1cn(C)cn1)NCc1cc(N(C)C)cc(CN[C@@H](Cc2cn(C)cn2)C(=O)OC)n1	inactive	
BLEOMYCIN	inactive	Activity [9]: inactive
COC(=O)[C@H](Cc1cn(Cc2ccccc2)cn1)NCc1cc(N(C)C)cc(CN[C@@H](Cc2cn(Cc3ccccc3)cn2)C(=O)OC)n1	inactive	
TEPRENONE	inactive	
COC(=O)[C@H](Cc1c[nH]cn1)NCc1cccc(CN[C@@H](Cc2cn(C(c3ccccc3)(c3ccccc3)c3ccccc3)cn2)C(=O)OC)c1	inactive	
